From PubChem BioAssay AID2423 (Broad Institute, 2010)
Results filed as inconclusive are left out. Activity calls are given as the source filed them. No rule for the calls is given here.

Each compound was assayed on C. albicans CaCi-8 + fluconazole, Alamar Blue growth, 48 h (assay: resistant C. albicans growth inhibition with fluconazole, dose response, CaCi-8 strain, Alamar Blue fluorescence (AID 2423)).

| Compound | EC50 |
| --- | --- |
| COc1ccc(CCNc2ncnc3sc(C)cc23)cc1OC | 1610 nM |
| COc1cccc(C(NC(C)=O)c2ccc3cccnc3c2O)c1 (configuration not stated) | 1730 nM |
| Brc1ccc(/C=C/C=N/Nc2nc3ccccc3s2)cc1 | > 16000 nM (inactive) |
| COc1ccc2c(c1)/C(=C/c1cnc[nH]1)C(=O)N2 | 1250 nM |
| Cc1ccc(C(=O)NCc2ccco2)cc1S(=O)(=O)Nc1cccc(Cl)c1 | > 15000 nM (inactive) |
| CN(C)S(=O)(=O)Oc1cccc(C(=O)Nc2cccc(Cl)c2)c1 | 1350 nM |
| COC(=O)c1cc(C)sc1NC(=O)c1cccnc1 | 5890 nM |
| CN1CCN(C(c2ccccn2)c2cc(Cl)c3cccnc3c2O)CC1 (configuration not stated) | 1170 nM |
| CC1=C(C(N)=O)C(c2ccc(C)o2)C(C(N)=O)=C(C)N1 | > 16000 nM (inactive) |
| CCCCCCCCC(=O)NNC(=O)c1c(O)c2ccccc2n(CC)c1=O | 1910 nM |
| CCOc1ccc(N=Nc2ccc(O)c3ncccc23)cc1 | 1150 nM |
| CC[n+]1cc(C)ccc1/C=C/c1ccc(N(C)C)cc1 | 1410 nM |
| CCCCn1c(SCC(=O)Nc2cccc(OC)c2)nc2ccc(N3CCOCC3)cc2c1=O | 3630 nM |
| CCOc1ccc2nc(N3C(=O)/C(=C/c4ccccc4)NC3=S)sc2c1 | 1410 nM |
| Cc1cccc(N=Nc2c(C)[nH]n(C(N)=S)c2=O)c1C | 944 nM |
| Cc1cc(O)ccc1NC(=S)NC(=O)c1cncc(Br)c1 | 727 nM |
| C=C(C)c1cccc(C(C)(C)NC(=O)Nc2ccc(C(N)=O)cc2)c1 | > 15000 nM (inactive) |
| CCCCC(=O)NC(c1ccc(N(C)C)cc1)c1ccc2cccnc2c1O (configuration not stated) | 707 nM |
| CCN(CC)c1ccc(N=Cc2ccc(N(CC)CC)cc2O)cc1 | 11100 nM |

| Compound | EC50 |
| --- | --- |
| Cc1nc(C)c(C(=O)N/N=C/c2cc(Br)ccc2O)s1 | 2120 nM |
| CC[n+]1c(/C=C/N(C)c2ccccc2)oc2ccccc21 | 7620 nM |
| CCc1cc(C(=O)NNC(=S)Nc2cc(C)ccc2C)cs1 | 422 nM |
| COCCCN1C(=O)C(=O)/C(=C(/O)c2ccc(OCC(C)C)cc2C)C1c1cccnc1 (configuration not stated) | > 15000 nM (inactive) |
| Cc1ccc(O)c(-c2cc(-c3cccc(Br)c3)n[nH]2)c1 | 6710 nM |
| O=C(O)c1ccc(NC(=S)NC(=O)c2ccc(-c3ccccc3)cc2)cc1 | 3350 nM |
| COc1cccc(/C=N/Nc2ccc([N+](=O)[O-])cn2)c1O | 1500 nM |
| O=C(NC(=S)NNC(=O)c1cnccn1)c1ccc(Cl)cc1 | 3420 nM |
| O=C(O/N=C1/CCSc2ccccc21)c1ccc(F)cc1 | > 15000 nM (inactive) |
| c1ccc(-c2ccccc2OCCCN2CCCCCC2)cc1 | 6610 nM |
| O=c1cc(CSc2ccc(Cl)cc2)nc(-c2ccccn2)[nH]1 | 531 nM |
| Cc1ccccc1C(=O)Nc1nnc(-c2ccc(F)cc2)o1 | 624 nM |
| Cc1ccc(C(=O)CC(=O)c2ccccc2C)c(O)c1 | 1900 nM |
| Cc1cccc(NC(=S)N/N=C(\c2ccccc2)C(C)C)c1 | 3120 nM |
| O=C(/C=C/c1ccco1)Nc1cccc(-c2nc3ccccc3[nH]2)c1 | 1250 nM |
| Cc1onc(-c2ccccc2)c1C(=O)N/N=C(\N)COc1ccc(Cl)cc1 | 14200 nM |
| O=c1cc2oc3cc(O)c(O)cc3c(-c3ccccc3[N+](=O)[O-])c-2cc1O | 1520 nM |
| COc1ccc(N(C(=O)Cn2nnc3ccccc32)C(C(=O)NC(C)(C)C)c2ccc(OC)c(O)c2)cc1 (configuration not stated) | 2210 nM |
| COc1ccc(C2C(C(=O)c3cccs3)=C(O)C(=O)N2c2nncs2)cc1 (configuration not stated) | 15200 nM |

| Compound | EC50 |
| --- | --- |
| O=C(Nc1cccc(F)c1)c1ccc2ncsc2c1 | 2350 nM |
| Cc1ccc(Nc2cc(C)nn2-c2nc(C)cc(=O)[nH]2)cc1 | < 120 nM |
| CCOC(=O)c1ccccc1NC(=O)c1cccc([N+](=O)[O-])c1 | > 15000 nM (inactive) |
| Cc1ccc(NC(=O)C2C(C(=O)O)C3C=CC2C32CC2)cc1 (configuration not stated) | > 16000 nM (inactive) |
| COc1ccc(C(=O)Nc2ccccc2C(=O)Nc2ccccc2C(=O)O)cc1 | 7540 nM |
| Cc1nc2ccc(NC(=O)COc3ccccc3)cc2s1 | 5370 nM |
| Cc1ccc(S(=O)(=O)c2ncccc2[N+](=O)[O-])cc1 | 1090 nM |
| COc1cccc(C(=O)Nc2nnc(-c3ccc(F)cc3)o2)c1 | 1690 nM |
| CC[n+]1c(/C=C/N(C)c2ccccc2)sc2ccc(Cl)cc21 | 3150 nM |
| Oc1c(C(c2ccc(Cl)cc2)N2CCCC2)cc(Cl)c2cccnc12 (configuration not stated) | 686 nM |
| O=[N+]([O-])c1ccc(O)c(P(=O)(c2ccccc2)c2ccccc2)c1 | > 15000 nM (inactive) |
| CCOC(=O)c1ccc(Oc2nc(NC(C)(C)C)nc(N(C)C)n2)cc1 | 13300 nM |
| O=C(Nc1ccc(OCc2ccccc2Cl)cc1)c1cccnc1 | 3710 nM |
| CCCOCc1ccc(O)c2ncccc12 | 2170 nM |
| Cc1ccc(C(c2cc(Cl)c3cccnc3c2O)N2CCN(C)CC2)cc1 (configuration not stated) | 704 nM |
| COc1ccc(/C=C/c2cc(-c3ccc(C)cc3)o[n+]2C)cc1 | 1650 nM |
| O=S(=O)(Nc1nc(-c2ccccc2)cs1)c1cc(Cl)ccc1Cl | 2790 nM |
| Oc1c(Br)cc(Br)cc1Oc1ccc(Br)cc1Br | 1760 nM |
| Cc1ccc(C(=O)NC(=S)NNC(=O)CC#N)cc1 | > 15000 nM (inactive) |
